Values joined by “and” are separate entries in the source; they are usually repeats but may differ in a detail not shown here. Equal values may be shown once. Where a name gives a salt, the structure may show the parent alone.
Columns and labels:
[1] = target: T1, rat CAR3 (Rattus norvegicus, UniProt Q9QUS1, INS280APYLT); test: Rat CAR3 transactivation assay with CYP2B6 promoter/enhancer reporter (rCAR3/2B6); format: cell-based; settings: 10 μM, 48 h, above DMSO treated cells, mean ± SE
T1 construct: expressed in transfected cells; host or cells: HepG2 (transient transfection)
T1 sequence (Q9QUS1 with tags, fused parts or gaps INS280APYLT): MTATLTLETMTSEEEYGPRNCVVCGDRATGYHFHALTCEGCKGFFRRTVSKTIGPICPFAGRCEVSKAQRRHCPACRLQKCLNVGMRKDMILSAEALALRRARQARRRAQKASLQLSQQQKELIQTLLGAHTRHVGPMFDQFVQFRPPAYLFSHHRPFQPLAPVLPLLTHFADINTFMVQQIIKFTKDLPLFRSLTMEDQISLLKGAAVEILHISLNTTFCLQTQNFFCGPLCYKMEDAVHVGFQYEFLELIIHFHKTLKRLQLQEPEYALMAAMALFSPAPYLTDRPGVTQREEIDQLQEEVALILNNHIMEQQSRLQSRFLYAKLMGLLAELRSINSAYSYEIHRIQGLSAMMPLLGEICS
T1 sequence (P19793 1-462 partner): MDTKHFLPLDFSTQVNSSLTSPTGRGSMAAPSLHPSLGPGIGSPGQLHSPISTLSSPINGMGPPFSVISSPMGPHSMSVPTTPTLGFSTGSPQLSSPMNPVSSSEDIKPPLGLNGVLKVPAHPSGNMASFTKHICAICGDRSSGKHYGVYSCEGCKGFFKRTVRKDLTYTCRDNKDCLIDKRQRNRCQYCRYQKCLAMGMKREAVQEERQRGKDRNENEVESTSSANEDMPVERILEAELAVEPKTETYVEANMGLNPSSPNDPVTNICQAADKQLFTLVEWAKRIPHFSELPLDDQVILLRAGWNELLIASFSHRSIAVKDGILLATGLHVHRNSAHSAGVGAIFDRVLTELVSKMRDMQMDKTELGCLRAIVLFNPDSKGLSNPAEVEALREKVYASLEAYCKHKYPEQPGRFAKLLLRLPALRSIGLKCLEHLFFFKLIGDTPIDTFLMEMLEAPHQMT
Experimental: (§1) To construct an expression vector harboring canine CAR3, reference CAR sequence (CAR1) for canine (Accession number: FJ202015) was amplified from C. familiaris liver cDNA. PCR conditions were 98°C for 2 min, 30 cycles of 98°C for 30 sec and 72°C for 1 min, followed by 72°C for 7 min and cooling to 4°C. The resulting PCR product was cloned into the pCR2.1 vector for sequence analysis and subsequently cloned into a pCDNA 3.1 expression vector (Life Technologies, Carlsbad, CA). […] Canine CAR1 was mutated to obtain CAR3 by introducing […] motif. This was performed using forward primer: 5’- […] -3’ and reverse primer: 5’- […] -3’ in concert with QuikChange Lightning mutagenesis kit (Agilent) according to manufacturer’s instructions. The presence of correct canine CAR3 was verified by sequence analysis. […]
(§2) Assessment of cell viability and transcriptional activation was performed in the same wells using the CellTiter-Fluor cell viability assay and ONE-Glo Luciferase assay. Fluorescence was determined on a BioTek Synergy 2 Luminometer (BioTek Instruments, Winooski, VT) with excitation at 400 nm and emission at 510 nm. Following viability determination luminescence was monitored.
(§3) Fluorescent light units were utilized to normalize for viable cell number in the luciferase (transcriptional activation) assay and expressed as the average of three determinations/chemical agent and concentration. […]

[2] = target: T1, rat CAR3; test: Rat CAR3 transactivation assay with CYP3A4 promoter/enhancer reporter (rCAR3/3A4); format: cell-based; settings: 10 μM, 48 h, above DMSO treated cells, mean ± SE
Experimental: as §1, §2, §3

[3] = test system: canine PXR; test: Canine PXR transactivation assay (HepG2 transiently transfected, CYP3A4 luciferase reporter); settings: 48 h
Experimental: To generate canine PXR (Accession number: XM_535750.3) with a start codon replicating that of human PXR (Accession number: AY091855), a Canis lupus familiaris liver cDNA was employed as the template. PCR conditions were 98°C for 2 min, 35 cycles of 98°C for 1 min, 59°C for 1 min and 72°C for 1 min 45 sec, followed by 72°C for 7 min and cooling to 4°C.
(§4) HepG2 cells were seeded in 10-cm cell culture dishes and incubated until 60–70% confluency (about 5 days). For transfections, dishes were rinsed with phosphate buffered saline (PBS) and cells incubated for 1–4 h in OptiMEM (Life Technologies). LipofectAMINE 2000 (Life Technologies) was used at a 2:1 ratio (μl of transfection reagent to μg of DNA). For transfections involving canine and rat CAR3, 24 μg of total DNA was used (9 μg of luciferase reporter construct, 7.5 μg of either empty expression vector or CAR expression construct and 7.5 μg of the hRXRα construct). For transfections with the canine PXR, 21 μg of total DNA was employed (12 μg of luciferase reporter containing CYP3A4 proximal and distal enhancers and 9 μg of either empty expression vector or plasmid containing canine PXR). Transfected HepG2 cells were incubated at 37°C, 5% CO2 for 19–24 h. The cells were then trypsinized with TrypLE Express solution (Life Technologies) and either frozen in the presence of 10% DMSO for future use or seeded into clear bottom 96-well assay plate at a density of 5x10^4 cells/well and incubated at 37°C, 5% CO2 for 24 h.
(§5) For luciferase reporter assays involving transient transfectants, either freshly transfected cells or cells that have been stored in liquid N2 were seeded in 96-well plates as described above. For the rPXR stable cell line, cells were seeded into a 96-well plate at a density of 2x10^4 cells/well. Following a 24 h recovery, transiently transfected cells or stably integrated rat PXR cells were treated with various chemicals dissolved in DMSO in triplicate wells. Phenobarbital was the only compound that was dissolved in sterile water. […] All treatments were performed for 48 h.
as §2
(§6) Fluorescent light units were utilized to normalize for viable cell number in the luciferase (transcriptional activation) assay and expressed as the average of three determinations/chemical agent and concentration. The average luminescent units were divided by the average for solvent control to determine the fold activation. Data is expressed as mean ± standard error (SE) of three separate experiments performed in triplicate. The data was further normalized by dividing the values for each chemical by values obtained from assays with empty expression vector control. One-way multiple comparison ANOVA test in concert with Uncorrected Fisher’s LSD posttest was used to compare treatment groups with the negative controls. The significance threshold was set at p < 0.01. All statistical analyses were performed using Prism V6.0c (GraphPad, San Diego, CA). To determine receptor activation kinetics for positive controls, EC50 and EMAX values were calculated using nonlinear regression analysis of typical log dose-response curves using Prism V6.0c (GraphPad, San Diego, CA).

[4] = target: canine CAR3 (Canis lupus familiaris, UniProt B6E443, INS263APYLT); settings: 10 μM, 48 h, above DMSO treated cells, mean ± SE
Experimental: To construct an expression vector harboring canine CAR3, reference CAR sequence (CAR1) for canine (Accession number: FJ202015) was amplified from C. familiaris liver cDNA. PCR conditions were 98°C for 2 min, 30 cycles of 98°C for 30 sec and 72°C for 1 min, followed by 72°C for 7 min and cooling to 4°C. The resulting PCR product was cloned into the pCR2.1 vector for sequence analysis and subsequently cloned into a pCDNA 3.1 expression vector (Life Technologies, Carlsbad, CA). […] Canine CAR1 was mutated to obtain CAR3 by introducing […] motif. This was performed using forward primer: 5’- […] -3’ and reverse primer: 5’- […] -3’ in concert with QuikChange Lightning mutagenesis kit (Agilent) according to manufacturer’s instructions. The presence of correct canine CAR3 was verified by sequence analysis. CYP2B6 luciferase reporter vector containing the XREM-PBREM promoter and enhancer was obtained from Dr. Omiecinski (Penn State University) and has been described previously. To generate rat CAR3, a plasmid containing reference CAR (CAR1) underwent mutagenesis as described above using 5’- […] -3’ as the forward primer and 5’- […] -3’ as the reverse primer. […] Firefly luciferase reporter construct harboring CYP3A4 proximal and distal enhancer regions has been described earlier.
as §4, with “The cells were then trypsinized with TrypLE Express solution (Life Technologies) and either frozen in the presence of 10% DMSO for future use or seeded into clear bottom 96-well assay plate at a density of 5x10^4 cells/well and incubated at 37°C, 5% CO2 for 24 h.” left out
as §2, §3

[5] = target: T2, rat PXR (Rattus norvegicus, UniProt Q9R1A7); test: Rat PXR transactivation assay (rPXR stable cell line, CYP3A4 luciferase reporter); settings: 48 h
T2 sequence (Q9R1A7 1-431): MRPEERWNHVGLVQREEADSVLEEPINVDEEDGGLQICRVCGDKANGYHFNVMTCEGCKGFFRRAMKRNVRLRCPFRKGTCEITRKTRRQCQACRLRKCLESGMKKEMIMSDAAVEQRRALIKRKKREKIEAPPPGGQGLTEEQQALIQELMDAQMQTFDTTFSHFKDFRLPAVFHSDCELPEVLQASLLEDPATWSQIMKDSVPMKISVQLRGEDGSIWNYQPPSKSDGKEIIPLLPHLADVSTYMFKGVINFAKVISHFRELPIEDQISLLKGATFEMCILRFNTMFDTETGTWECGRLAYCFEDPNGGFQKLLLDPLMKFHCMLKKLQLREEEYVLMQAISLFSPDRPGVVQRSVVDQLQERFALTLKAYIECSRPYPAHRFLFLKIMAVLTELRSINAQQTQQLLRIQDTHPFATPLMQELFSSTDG
Experimental: Human hepatoma cell line, HepG2 was obtained from American Type Culture Collection (Rockville, MD) and maintained in DMEM supplemented with 10% FBS, 100 U/ml penicillin and 100 μg /ml streptomycin at 37°C, 5% CO2. The stable cell line, rPXR, harboring rat PXR and the CYP3A4 promoter and enhancer linked to luciferase was produced and maintained as described previously.
as §5, §2, §6

[6] = 10 μM, above DMSO treated cells, mean ± SE
[7] = 100 μM, above DMSO treated cells, mean ± SE
[8] = panel of 19 compounds, concentration not given

canine CAR3, sequence (B6E443 entry or part of it INS263APYLT, one chain of several): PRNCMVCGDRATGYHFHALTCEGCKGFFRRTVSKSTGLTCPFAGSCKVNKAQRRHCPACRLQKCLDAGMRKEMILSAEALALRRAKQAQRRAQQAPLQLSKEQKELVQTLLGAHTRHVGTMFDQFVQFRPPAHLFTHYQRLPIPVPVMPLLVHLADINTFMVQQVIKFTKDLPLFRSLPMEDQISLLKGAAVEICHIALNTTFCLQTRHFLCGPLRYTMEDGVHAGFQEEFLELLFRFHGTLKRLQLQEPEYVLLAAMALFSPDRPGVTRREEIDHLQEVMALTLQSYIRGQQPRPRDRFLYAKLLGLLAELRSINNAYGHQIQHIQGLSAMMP

## O=c1cc(-c2ccccc2)oc2c1ccc1ccccc12 [ANF, α-naphthoflavone]
[1]
  Rat CAR3 Fold Activation, CYP2B6 promoter and enhancer: 3.4 ± 0.8 fold and 3.4 ± 0.8^c fold
[2]
  Rat CAR3 Fold Activation, CYP3A4 promoter and enhancer: negligible effect

## Clc1ccc(-c2nc3sccn3c2C=NOCc2ccc(Cl)c(Cl)c2)cc1 [CITCO, 6-(4-Chlorophenyl)imidazo[2,1-b][1,3]thiazole-5-carbaldehyde O-(3,4-dichlorobenzyl)oxime]
[3]; [6]
  Canine PXR Fold Activation: 5.4 ± 2.1 fold

## CCCCC(CC)COC(=O)c1ccccc1C(=O)OCC(CC)CCCC (stereo not shown) [DEHP, bis (2-ethylhexyl) phthalate]
[4]
  Canine CAR3 Fold Activation, CYP2B6 promoter and enhancer: 4.3 ± 0.8 fold and 4.3 ± 0.8^c fold
  Canine CAR3 Fold Activation, CYP3A4 promoter and enhancer: significant activation only when the CYP2B6 promoter was used
[5]; [6]
  Rat PXR Fold Activation: -

## O=C1Nc2ccc(Cl)cc2[C@@](C#CC2CC2)(C(F)(F)F)O1 [Efavirenz, efavirenz]
[5]; rat, 10 μM
  Rat PXR Fold Activation: 7.5 ± 2.3 fold
[1]
  Rat CAR3 Fold Activation, CYP2B6 promoter and enhancer: 3.9 ± 0.6 fold
[2]
  Rat CAR3 Fold Activation, CYP3A4 promoter and enhancer: 7.4 ± 3.3 fold

## C=C[C@@]1(C)CC(=O)[C@]2(O)[C@@]3(C)[C@@H](O)CCC(C)(C)[C@@H]3[C@H](O)[C@H](OC(C)=O)[C@@]2(C)O1 [Forskolin, forskolin]
[3]; [6]
  Canine PXR Fold Activation: 5.6 ± 1.4 fold
[5]; rat, 10 μM
  Rat PXR Fold Activation: 5.8 ± 0.5 fold

## COc1ccc2[nH]c([S+]([O-])Cc3ncc(C)c(OC)c3C)nc2c1 (stereo not shown) [Omeprazole, omeprazole]
[3]; [7]
  Canine PXR Fold Activation: 9.6 ± 1.3 fold
[5]; rat, 100 μM
  Rat PXR Fold Activation: 9.8 ± 0.9 fold

## CCC1(c2ccccc2)C(=O)NC(=O)NC1=O [Phenobarbital, phenobarbital sodium salt]
[3]; [8]
  Canine PXR Fold Activation: failed to elicit a significant activation
[5]; 1 mM, vehicle water
  Rat PXR activation: failed to elicit significant activation
[5]; [8]
  Rat PXR activation: failed to elicit a significant activation

## CC(=O)[C@H]1[C@H](C#N)C[C@H]2[C@@H]3CC=C4C[C@@H](O)CC[C@]4(C)[C@H]3CC[C@@]21C [Pregnenolone 16α carbonitrile, pregnenolone-16 α -carbonitrile]
[5]; dose-response curve, above 0.1% DMSO
  Emax, rat PXR activation: 11.4 fold
[5]; read-out: EC50, rat PXR activation, dose-response curve, nonlinear regression
  EC50: 140 nM

## CCOP(=O)(OCC)C(=Cc1cc(C(C)(C)C)c(O)c(C(C)(C)C)c1)P(=O)(OCC)OCC [SR12813, tetraethyl 2-(3,5-di-tert-butyl-4-hydroxyphenyl)ethenyl-1,1-bisphosphonate]
[3]; [6]
  Canine PXR Fold Activation: 60.1 ± 3.1 fold
[3]; dose-response 0.1 to 30 μM, above 0.1% DMSO
  Emax, canine PXR activation: 60.3 ± 5.5 fold and 60.3 fold
[3]; read-out: EC50, canine PXR activation, dose-response 0.1 to 30 μM, nonlinear regression
  EC50: 1900 ± 200 nM
[4]
  Canine CAR3 Fold Activation, CYP2B6 promoter and enhancer: activation only in the presence of the CYP3A4 promoter
  Canine CAR3 Fold Activation, CYP3A4 promoter and enhancer: 3.1 ± 0.7 fold and 3.1 ± 0.7^d fold
[5]; [6]
  Rat PXR Fold Activation: 6.1 ± 0.6 fold

## Clc1cnc(Oc2ccc(Oc3ncc(Cl)cc3Cl)cc2)c(Cl)c1 [TCPOBOP, 1,4-Bis-[2-(3,5-dichloropyridyloxy)]benzene, 3,3′,5,5′-Tetrachloro-1,4-bis(pyridyloxy)benzene]
[5]; [6]
  Rat PXR Fold Activation: failed to elicit significant activation

## O=C1NC(=O)C(c2ccccc2)(c2ccccc2)N1 [phenytoin]
[3]; [8]
  Canine PXR Fold Activation: failed to elicit a significant activation
[5]; [7]
  Rat PXR Fold Activation: failed to elicit significant activation
[5]; [8]
  Rat PXR activation: failed to elicit a significant activation

Reference: publication PMC5061317, “Transactivation Assays to Assess Canine and Rodent Pregnane X Receptor (PXR) and Constitutive Androstane Receptor (CAR) Activation” (PLoS ONE, 2016)
